Key:
Type in all cases: in vivo
[1] = system: Beet Armyworm (Spodoptera exigua, LAPHEG); experiment: Bioassay on Beet Armyworm (BAW), 128-well diet tray assay; details: 168 h, 50 μg/cm^2 on artificial diet, second instar larvae, 25° C., five to seven days, average of eight wells, read-out: BAW % Control (or Mortality) rating
Procedure, shortened: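 In a 128-well format, eight wells per compound received a surface dose of 50 μg/cm^2 on artificial diet. After drying, each well got one to five second instar larvae, held at 25° C. with 14:10 photoperiod. Mortality percentages after five to seven days were averaged.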

[2] = system: Yellow Fever Mosquito (Aedes aegypti, AEDSAE); details: about 1 day-old larvae, 96-well plate from 4000 ppm DMSO master, 3 days at room temperature
Method: Certain molecules disclosed in this document were tested against YFM using procedures described in the following paragraph. In the reporting of the results, the “GPA & YFM Rating Table” was used (See Table Section).
Master plates containing 400 μg of a molecule dissolved in 100 μL of dimethyl sulfoxide (DMSO) (equivalent to a 4000 ppm solution) are used. A master plate of assembled molecules contains 15 μL per well. To this plate, 135 μL of a 90:10 water/acetone mixture is added to each well. A robot is programmed to dispense 15 μL aspirations from the master plate into an empty 96-well shallow plate (“daughter” plate). There are 6 reps (“daughter” plates) created per master. The created “daughter” plates are then immediately infested with YFM larvae.
The day before plates are to be treated, mosquito eggs are placed in Millipore water containing liver powder to begin hatching (4 g. into 400 mL). After the “daughter” plates are created using the robot, they are infested with 220 μL of the liver powder/larval mosquito mixture (about 1 day-old larvae). After plates are infested with mosquito larvae, a non-evaporative lid is used to cover the plate to reduce drying. Plates are held at room temperature for 3 days prior to grading. After 3 days, each well is observed and scored based on mortality. The results are indicated in the table entitled “Table ABC: Biological Results” (See Table Section).

[3] = system: Cabbage Looper (Trichoplusia ni, TRIPNI); experiment: Bioassay on Cabbage Looper (CL), 128-well diet tray assay; details: 168 h, 50 μg/cm^2 on artificial diet, second instar larvae, 25° C., five to seven days, average of eight wells, read-out: CL % Control (or Mortality) rating
Procedure, shortened: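 Mortality of second instar larvae exposed to diet coated with 50 μg/cm^2 compound (acetone-water 90:10 vehicle, dried); 25° C., 5–7 days.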

With N#CC1(NC(=O)c2cc(NC(=O)[C@H]3[C@H](c4cc(F)c(Br)c(F)c4)C3(Cl)Cl)ccc2Cl)CC1 (relative stereo) [Molecule F82, trans-5-(3-(4-Bromo-3,5-difluorophenyl)-2,2-dichlorocyclopropane-1-carboxamido)-2-chloro-N-(1-cyanocyclopropyl)benzamide] the mortality at 50 µg/cm2 [1] was 50 to 100%, the “YFM % Control (or Mortality) rating” value [2] was “A (80-100)” and the mortality at 50 µg/cm2 [3] was 50 to 100%.

COc1cc([C@H]2[C@H](C(=O)Nc3ccc(Cl)c(C(=O)NC4(C#N)CC4)c3)C2(Cl)Cl)cc(F)c1Br (relative stereo) [Molecule F83, trans-5-(3-(4-Bromo-3-fluoro-5-methoxyphenyl)-2,2-dichlorocyclopropane-1-carboxamido)-2-chloro-N-(1-cyanocyclopropyl)benzamide] was tested, and the mortality at 50 µg/cm2 [1] was 50 to 100%, the “YFM % Control (or Mortality) rating” value [2] was “A (80-100)” and the mortality at 50 µg/cm2 [3] was 50 to 100%.

For COc1c(F)cc([C@H]2[C@H](C(=O)Nc3ccc(Cl)c(C(=O)NC4(C#N)CC4)c3)C2(Cl)Cl)cc1Br (relative stereo) [Molecule F84, trans-5-(3-(3-Bromo-5-fluoro-4-methoxyphenyl)-2,2-dichlorocyclopropane-1-carboxamido)-2-chloro-N-(1-cyanocyclopropyl)benzamide], the mortality at 50 µg/cm2 [1] was 50 to 100%, the “YFM % Control (or Mortality) rating” value [2] was “A (80-100)” and the mortality at 50 µg/cm2 [3] was 50 to 100%.

For N#CC1(NC(=O)c2cc(NC(=O)[C@H]3[C@H](c4cc(Cl)cc(C(F)F)c4)C3(Cl)Cl)ccc2Cl)CC1 (relative stereo) [Molecule F85, trans-2-Chloro-N-(1-cyanocyclopropyl)-5-(2,2-dichloro-3-(3-chloro-5-(difluoro-methyl)phenyl)cyclopropane-1-carboxamido)benzamide], the mortality at 50 µg/cm2 [1] was 50 to 100%, the “YFM % Control (or Mortality) rating” value [2] was “A (80-100)” and the mortality at 50 µg/cm2 [3] was 50 to 100%.

For N#CC1(NC(=O)c2cc(NC(=O)[C@H]3[C@H](c4ccc(Cl)c(C(F)F)c4)C3(Cl)Cl)ccc2Cl)CC1 (relative stereo) [Molecule F86, trans-2-Chloro-N-(1-cyanocyclopropyl)-5-(2,2-dichloro-3-(4-chloro-3-(difluoro-methyl)phenyl)cyclopropane-1-carboxamido)benzamide], the mortality at 50 µg/cm2 [1] was 50 to 100%, the “YFM % Control (or Mortality) rating” value [2] was “A (80-100)” and the mortality at 50 µg/cm2 [3] was 50 to 100%.

In the case of N#CC1(NC(=O)c2cc(NC(=O)[C@H]3[C@H](c4cc(F)cc(C(F)F)c4)C3(Cl)Cl)ccc2Cl)CC1 (relative stereo) [Molecule F87, trans-2-Chloro-N-(1-cyanocyclopropyl)-5-(2,2-dichloro-3-(3-(difluoromethyl)-5-fluorophenyl)cyclopropane-1-carboxamido)benzamide], the mortality at 50 µg/cm2 [1] is reported as 50 to 100%, the “YFM % Control (or Mortality) rating” value [2] is reported as “A (80-100)” and the mortality at 50 µg/cm2 [3] is reported as 50 to 100%.

N#CC1(NC(=O)c2cc(NC(=O)[C@H]3[C@H](c4ccc(F)c(C(F)F)c4)C3(Cl)Cl)ccc2Cl)CC1 (relative stereo) [Molecule F88, trans-2-Chloro-N-(1-cyanocyclopropyl)-5-(2,2-dichloro-3-(3-(difluoromethyl)-4-fluorophenyl)cyclopropane-1-carboxamido)benzamide] was tested, and the mortality at 50 µg/cm2 [1] was 50 to 100%, the “YFM % Control (or Mortality) rating” value [2] was “A (80-100)” and the mortality at 50 µg/cm2 [3] was 50 to 100%.

For N#CC1(NC(=O)c2cc(NC(=O)[C@H]3[C@H](c4ccc(C(F)F)c(Cl)c4)C3(Cl)Cl)ccc2Cl)CC1 (relative stereo) [Molecule F89, trans-2-Chloro-N-(1-cyanocyclopropyl)-5-(2,2-dichloro-3-(3-chloro-4-(difluoromethyl)phenyl)cyclopropane-1-carboxamido)benzamide], the mortality at 50 µg/cm2 [1] was 50 to 100%, the “YFM % Control (or Mortality) rating” value [2] was “A (80-100)” and the mortality at 50 µg/cm2 [3] was 50 to 100%.

With N#CC1(NC(=O)c2cc(NC(=O)[C@H]3[C@H](c4ccc(C(F)F)c(F)c4)C3(Cl)Cl)ccc2Cl)CC1 (relative stereo) [Molecule F90, trans-2-Chloro-N-(1-cyanocyclopropyl)-5-(2,2-dichloro-3-(4-(difluoromethyl)-3-fluorophenyl)cyclopropane-1-carboxamido)benzamide] the mortality at 50 µg/cm2 [1] was 50 to 100%, the “YFM % Control (or Mortality) rating” value [2] was “A (80-100)” and the mortality at 50 µg/cm2 [3] was 50 to 100%.

N#CC1(NC(=O)c2cc(NC(=O)[C@H]3[C@H](c4cccc(C(F)F)c4)C3(Cl)Cl)ccc2Cl)CC1 (relative stereo) [Molecule F91, trans-2-Chloro-N-(1-cyanocyclopropyl)-5-(2,2-dichloro-3-(3-(difluoromethyl)-phenyl)cyclopropane-1-carboxamido)benzamide] was tested, and the mortality at 50 µg/cm2 [1] was 50 to 100%, the “YFM % Control (or Mortality) rating” value [2] was “A (80-100)” and the mortality at 50 µg/cm2 [3] was 50 to 100%.

In the case of N#CC1(NC(=O)c2cc(NC(=O)[C@H]3[C@H](c4ccc(C(F)F)cc4)C3(Cl)Cl)ccc2Cl)CC1 (relative stereo) [Molecule F92, trans-2-Chloro-N-(1-cyanocyclopropyl)-5-(2,2-dichloro-3-(4-(difluoromethyl)-phenyl)cyclopropane-1-carboxamido)benzamide], the mortality at 50 µg/cm2 [1] is reported as 50 to 100%, the “YFM % Control (or Mortality) rating” value [2] is reported as “A (80-100)” and the mortality at 50 µg/cm2 [3] is reported as 50 to 100%.

In the case of N#CC1(NC(=O)c2cc(NC(=O)[C@H]3[C@H](c4cc(F)cc(Cl)c4)C3(Cl)Cl)ccc2Cl)CC1 (relative stereo) [PF1, trans-2-Chloro-N-(1-cyanocyclopropyl)-5-(2,2-dichloro-3-(3-chloro-5-fluorophenyl)cyclopropane-1-carboxamido)benzamide], the mortality at 50 µg/cm2 [1] is reported as 50 to 100%, the “YFM % Control (or Mortality) rating” value [2] is reported as “A (80-100)” and the mortality at 50 µg/cm2 [3] is reported as 50 to 100%.

With N#CC1(NC(=O)c2cc(NC(=O)[C@H]3[C@H](c4cc(Cl)cc(Br)c4)C3(Cl)Cl)ccc2Cl)CC1 (relative stereo) [PF4, trans-5-(3-(3-Bromo-5-chlorophenyl)-2,2-dichlorocyclopropane-1-carboxamido)-2-chloro-N-(1-cyanocyclopropyl)benzamide] the mortality at 50 µg/cm2 [1] was 50 to 100%, the “YFM % Control (or Mortality) rating” value [2] was “A (80-100)” and the mortality at 50 µg/cm2 [3] was 50 to 100%.

For O=C(NC1CC(F)(F)C1)c1cc(NC(=O)[C@H]2[C@H](c3cc(F)cc(Cl)c3)C2(Cl)Cl)ccc1Cl (relative stereo) [PF5, trans-2-Chloro-5-(2,2-dichloro-3-(3-chloro-5-fluorophenyl)cyclopropane-1-carboxamido)-N-(3,3-difluorocyclobutyl)benzamide], the mortality at 50 µg/cm2 [1] was 50 to 100%, the “YFM % Control (or Mortality) rating” value [2] was “B (More than 0-Less than 80)” and the mortality at 50 µg/cm2 [3] was 50 to 100%.

For O=C(NC1CC(F)(F)C1)c1cc(NC(=O)[C@H]2[C@H](c3ccc(Cl)c(F)c3)C2(Cl)Cl)ccc1Cl (relative stereo) [PF6, trans-2-Chloro-5-(2,2-dichloro-3-(4-chloro-3-fluorophenyl)cyclopropane-1-carboxamido)-N-(3,3-difluorocyclobutyl)benzamide], the mortality at 50 µg/cm2 [1] was 50 to 100%, the “YFM % Control (or Mortality) rating” value [2] was “D (No activity noticed in this bioassay)” and the mortality at 50 µg/cm2 [3] was 50 to 100%.

For O=C(NC1CN(C(=O)C2CC2)C1)c1cc(NC(=O)[C@H]2[C@H](c3cc(Cl)cc(Cl)c3)C2(Cl)Cl)ccc1Cl (relative stereo) [PF9, trans-2-chloro-N-(1-(cyclopropanecarbonyl)-azetidin-3-yl)-5-(2,2-dichloro-3-(3,5-dichlorophenyl)cyclopropane-1-carboxamido)benzamide], the mortality at 50 µg/cm2 [1] was 50 to 100%, the “YFM % Control (or Mortality) rating” value [2] was “B (More than 0-Less than 80)” and the mortality at 50 µg/cm2 [3] was 50 to 100%.
